This is an account of results in patent US12612358B2, “Resorcinol-based compounds and uses thereof” (priority 2020, dated 2026).

Each structure is given as a SMILES string.

In series [1] the test system is MDA-MB231 D3H. The series can be described thus: CellTiter-Glo viability/proliferation assay, MDA-MB231 breast cancer cells. Conditions: Homo sapiens, MDA-MB-231, 48 h; CellTiter-Glo, two-day treatment; read-out: Inhibition of MDA-MB231 D3H. Type of series: cell-based.
For series [2], the system named is SW1990. The series is described as follows: CellTiter-Glo cell proliferation, SW1990 pancreatic cancer cells. Type of series: cell-based. Conditions: Homo sapiens, read-out: IC50 category. An excerpt:
Cell culture and treatment of pancreatic cancer cell lines: Pancreatic cancer cells lines BxPC-3, SW1990, and PANC-1 used in the experiments presented herein can be obtained from ATCC. The cells can be cultured and passaged in complete growth medium (RPMI-1640, Dulbecco's Modified Eagle Medium, or Leibovitz's L-15 medium) that has been supplemented with fetal bovine serum to a final concentration of 10%.
Effects of Compound-5B on proliferation and Id-1 expression in pancreatic cell lines. Compound-5B was next tested for inhibition of cell viability/proliferation in the three pancreatic cancer cell lines and two primary patient-derived cancer cell lines. Compound-5B inhibited cell viability/proliferation of all the cancer cell lines (Table 2). The culturing condition for the pancreatic cell lines was similar to those used in the breast cancer lines, with the exception of the primary patient-derived pancreatic cancer cell lines (PANC9 and PANC13). […] Cell proliferation of pancreatic cells in the presence of drug was measured using the CellTiter-Glo luminescent Assay and IC50 values were calculated (Table 2). […]

Series [3] deals with PANC9. The series can be described thus: CellTiter-Glo cell proliferation, patient-derived PANC9 tumorspheres. Type of series: cell-based. Particulars: Homo sapiens, 72 h, three days treatment, read-out: IC50 category. An excerpt: Effects of Compound-5B on proliferation and Id-1 expression in pancreatic cell lines. Compound-5B was next tested for inhibition of cell viability/proliferation in the three pancreatic cancer cell lines and two primary patient-derived cancer cell lines. Compound-5B inhibited cell viability/proliferation of all the cancer cell lines (Table 2). The culturing condition for the pancreatic cell lines was similar to those used in the breast cancer lines, with the exception of the primary patient-derived pancreatic cancer cell lines (PANC9 and PANC13). For determining inhibition of cell proliferation in patient-derived pancreatic cancer cells were cultured in a T75 ultra low attachment flasks with DMEM/F12 media supplemented with B27, penicillin/streptomycin (10,000 u/mL), 50 µg/mL human epidermal growth factor (hEGF), 50 μg/mL human fibroblast growth factor, and 5 μg/mL heparin. Cells were plated in a 384-well plate and incubated for three days to promote the formation of tumorspheres. Cells were then treated with Compound-5B for three days. Cell proliferation of pancreatic cells in the presence of drug was measured using the CellTiter-Glo luminescent Assay and IC50 values were calculated (Table 2). The IC50 and corresponding 95% confidence limits (CL) were calculated using non-linear regression analysis.

For series [4], the system named is Kasumi −1 (leukemia). The series is described as follows: Cell proliferation, Kasumi-1 leukemia cells. It counts as cell-based. Particulars: Homo sapiens, read-out: IC50 category. An excerpt: Effects of Compound-5B on cell proliferation in additional cancer cells: To determine whether Compound-5B would have broad based anticancer activity, we study whether Compound-5B would be effective at inhibiting cell proliferation in a variety of cancers overexpressing Id-1. The assay conditions used were identical to those presented for breast and pancreatic cancers. Indeed, Compound-5B was potent at inhibiting cell proliferation in blood cancer (leukemia), glioblastoma, prostate, and ovarian cancer.

Series [5] deals with Id-1. The series can be described thus: Id-1 expression in primary patient-derived BRC25 cells. Type of series: cell-based, human. The protocol:
Quantitative Western analysis: Cells are cultured and treated in 6-well dishes. After the cells are washed twice with cold PBS, lysis buffer is added. The cells are then lysed by freezing for 10 min at −70° C. and then thawing at ambient temperature. The cell lysate is collected and the protein content is determined by using Bradford reagent. Equal amounts of protein are heated at 90° C. in Laemmli sample buffer which also included β-mercaptoethanol. The samples are then loaded onto a precast SDS-PAGE gel (Bio-Rad Laboratories, Hercules, CA). After which, proteins are then electroblotted onto an Immobilon membrane (Millipore, Billerica, MA) overnight at 2-4° C. The membrane is then blocked for 1 hour with 5% nonfat dry milk which included TBS+Tween. The membranes are then incubated with an anti-Id-1 primary antibody, and then an appropriate secondary antibody was used. Blots are incubated for 45 min and then washed 4 times with TBS+Tween for 15 min each. […]
Effects of Compound-5B on breast cancer cell proliferation, Id-1 expression and invasion in culture. […] The ability of the cells to migrate and invade in modified Boyden chambers was determined. The percentage relative invasion was calculated as the effect on treated cells/vehicle cells×100. […]

The subject of series [6] is MDA-MB231 cells. The series is described as follows: Invasion in modified Boyden chambers, MDA-MB231 cells. Type of series: cell-based, human. The procedure: Effects of Compound-5B on breast cancer cell proliferation, Id-1 expression and invasion in culture. […] The ability of the cells to migrate and invade in modified Boyden chambers was determined. The percentage relative invasion was calculated as the effect on treated cells/vehicle cells×100. Respective controls (vehicle treated cells) were set as 100%.

Series [7] deals with 4T1 cells. The series can be described thus: 4T1 lung metastasis model in BALB/c mice. It counts as in vivo, mouse. Conditions: 4T1 tail vein, i.p. once a day, six days a week, three weeks. The procedure:
(§1) Antitumor activity of Compound-5B in vivo in breast cancer. Based on the activity of Compound-5B in culture, the antitumor activity of Compound-5B was tested in vivo in two models of breast cancer (FIG. 4). Compound-5B produced a potent inhibition of Id-1 expression in human MDA-MB231 cells (FIG. 1A). We also determined whether it produced a similar effect in mouse 4T1 breast cancer cells. This cell line is commonly used for seeding a lung metastatic model in mice. […] LC=loading control (FIG. 4A). […] Lung metastases were generated in BALB/c mice by tail vein injection of 4×10^4 4T1 cells. Two days after the injection, the tumor bearing mice were injected i.p. once a day, six days a week, with vehicle or Compound 5B three weeks. Lung metastasis % (total metastatic foci in treated/vehicle×100) was evaluated (FIG. 4B). […] Animals with established tumors (average volume of 100 mm^3) were randomized and treated once daily, 6 days a week, with i.p., injections of vehicle, or 1 mg/kg Compound-5B, tumors were measured once weekly by an operator blinded to the treatment groups. Changes in tumor volume (mm^3) were calculated as (length×width2)/2. *indicates statistically significant differences between vehicle and Compound-5B (p<0.05, Two-way ANOVA repeated measures, and Tukey's multiple comparisons test).

For series [8], the system named is MDA-MB231 cells. The series is described as follows: MDA-MB231 mammary fat pad primary tumor model in athymic nu/nu mice. It counts as in vivo, mouse. Particulars: MDA-MB231, 1 mg/kg i.p. once daily, 6 days a week. The procedure: as §1
Series [9] deals with CYP450 isoforms. The series is described as follows: CYP450 isoform inhibition. Type of series: in vitro ADME. Particulars: 1 μM. The protocol: Evaluating ADME of Compound-5B in vitro. It is important to evaluate ADME first in culture as it allows for the selection of the best candidate for PK analysis in vivo. ADME analysis of Compound-5B was performed by Eurofins.
Series [10] concerns the target T1, ADRB2 (β-Adrenergic receptor) (Homo sapiens, UniProt P07550).
T1 construct: purchased Eurofin's
The series is described as follows: SAFETY scan E/IC50 ELECT, ADRB2. Type of series: biochemical. Particulars: read-out: inhibition against ADRB2 (mild).

The subject of series [11] is 468 kinases. The series is described as follows: Eurofin's Kinome scan assay. Conditions: 1 μM and 10 μM.
Experimental: Eurofin's Kinome scan assay was used to screen Compound-5B against 468 kinases at 1 μM and 10 μM concentrations. […] In order to understand any potential pharmacological cross reactivity, a known contributor to clinical adverse drug reactions Compound-5B was tested in SAFETY scan E/IC50 ELECT.

T1 sequence (P07550 whole entry): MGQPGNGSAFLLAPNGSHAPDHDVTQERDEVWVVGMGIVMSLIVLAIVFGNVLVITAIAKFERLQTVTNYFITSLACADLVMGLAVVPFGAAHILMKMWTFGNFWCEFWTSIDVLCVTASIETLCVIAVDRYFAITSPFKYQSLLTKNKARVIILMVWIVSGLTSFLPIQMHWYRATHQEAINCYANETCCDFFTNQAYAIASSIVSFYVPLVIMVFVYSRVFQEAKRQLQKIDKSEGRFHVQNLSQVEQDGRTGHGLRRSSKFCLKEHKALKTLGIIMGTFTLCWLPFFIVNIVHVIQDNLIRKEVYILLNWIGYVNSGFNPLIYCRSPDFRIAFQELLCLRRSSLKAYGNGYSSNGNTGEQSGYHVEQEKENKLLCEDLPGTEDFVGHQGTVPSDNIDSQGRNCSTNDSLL

On to `CCCCCCC(C)(C)c1cc(O)c(C(=O)Nc2ccccc2)c(O)c1` [Compound 5B, 2,6-dihydroxy-4-(2-methyloctan-2-yl)-N-phenylbenzamide], for which the IC50 was less than 500 nM in series [1]; less than 500 nM in series [2]; less than 500 nM in [3]; less than 500 nM in [4]; 640 to 750 nM in series [10]. Further, the “inhibition of Id-1 expression” value in [5] is given as “significant potency”. The “invasion of MDA-MB231 cells” value in series [6] is reported as “inhibits the invasion”. In [7], the lung metastasis entry is recorded as “inhibits breast cancer metastasis”. Further, in [8], the primary tumor growth result is “able to inhibit primary tumor growth”. The “inhibition of important CYP450 isoforms” value in [9] is “does not inhibit”. Also, in [11], the “inhibition of 468 kinases” value is reported as “No significant inhibition”.
